Test results reported in publication PMC4674085, “Towards Prebiotic Catalytic Amyloids Using High Throughput Screening” (PLoS ONE, 2015).

How the values were obtained:
Type in all cases: physicochemical
[1] = Circular dichroism (CD), secondary structure of aggregates; set-up: key: β+: has minimum near 217 nm; β++: has minimum near 217 nm and a maximum near 197 nm; −: signal too weak to interpret; ?: spectra not typical of any secondary structure
Procedure: The concept of creating an amyloid library out of a peptide library is only meaningful if the vast majority of the peptides actually form amyloids in at least one of the conditions tested. To establish the validity of our amyloid library we measured circular dichroism (CD), Fourier transform infrared spectroscopy (ATR-FTIR), as well as thioflavin T (ThT) fluorescence of peptides 1–33 at pH 7.3 (50 mM HEPES) and pH 4 (50 mM NaOAc) (see interactive Table A and associated data in S1 File). Based on the analysis of the CD and ATR-FTIR spectra (shown in the interactive Table A in S1 File) all the peptides formed β-structured aggregates in at least one condition. Most of the 33 peptides induced a significant increase in ThT fluorescence in at least one condition. […] The fibrils from a selection of the active peptides were aligned and analyzed by X-ray diffraction (Figures C and D in S1 File). In each case we observed the cross-β diffraction pattern typical of amyloid fibrils, although the degree of sample alignment varied. For two samples, 14 and 27, the difference in meridional and equatorial diffraction intensities was small but easily detected in a plot of the angular dependence of the intensity (Figure D in S1 File). The conclusion that can be drawn out of the multiple analysis techniques is that the 33 peptides that comprise the library are overwhelmingly prone to form fibril-like, β-structured aggregates. The cross-β diffraction of the tested aggregates would imply that they are more specifically all amyloidogenic.
CD measurements were carried out on a Jasco J815. Samples were prepared by centrifuging the amyloid library at 25,000 g for 10 min and then removing the supernatant. The pellets were resuspended at an approximate concentration of 100 μg/ml in 10 mM HEPES pH 7.3 (for mixtures from 50 mM HEPES) or 10 mM NaOAc pH 4 (for mixtures from 50 mM NaOAc), the suspensions were then treated with an ultrasonic probe for 5 s, upon which the solutions were placed in 1 mm cuvettes, diluted as necessary to maintain the detector voltage below 600 V and scanned from 260–190 nm at 50 nm/min, 1 nm band-pass, 2 second integration, averaged over 3 repetitions.
(§1) Table A and associated data: Biophysical characterization of library
(§2) Sequence ThT1 CD2 FTIR3 EM4 ThT CD FTIR EM X-ray5 […]
2. […]

[2] = ATR-FTIR, amide I peak of aggregates; set-up: key: indicates that no peak was observed within the typical range of stretching frequencies forβ-structure (between dashed lines at 1638 cm−1 and 1615 cm−1); settings: air-dried pellet, crude peptide
Procedure: Samples were prepared as for the CD measurements, but instead of re-suspending the samples after centrifugation, 3 μl of H2O were added to the pellet so that it could be placed onto the diamond ATR cell of a Bruker Alpha-p ATR-FTIR spectrometer followed by air-drying before measuring the spectra. Blank subtraction was performed with an empty cell (air) and all measurements were performed without the pressure applicator.
as §1, §2
3. The peak position in amide I region is given in cm−1. […]

[3] = Thioflavin T fluorescence (ThT); settings: crude peptide fibrillized at 160 μM, mixed 10:1 with 50 μM ThT, ex 440 nm em 480 nm
Procedure: The samples of the amyloid library (50 mM HEPES pH 7.3 or 50 mM NaOAc pH 4) were mixed 10:1 with 50 μM ThT and the increase in fluorescence was measured in a 384-well plate in a BMG Pherastar platereader (ex: 440 nm em: 480 nm). The background signal from the peptides without ThT was subtracted from the one with the ThT present in the sample. Due to the large dynamic range of the signals among the many samples, the measurements were made at two different gain settings to ensure that all of the signals fell within the measureable range.
as §1
Sequence ThT1 CD2 FTIR3 EM4 ThT CD FTIR EM X-ray5
1. Fold increase in ThT ﬂuorescence over background. […]

[4] = Transmission electron microscopy (TEM) of fibrils; set-up: key: +: ﬁbrils present; −: absent in EM micrographs; settings: uranyl acetate stain
Procedure: The samples of the amyloid library (50 mM HEPES pH 7.3 or 50 mM NaOAc pH 4) were applied directly to glow-discharged carbon-coated grids, washed and then stained with uranyl acetate. Images were recorded on a Philips CM 12 electron microscope.
as §1, §2
4. (+) ﬁbrils present or (−) absent in EM micrographs. […]

[5] = pH 7.3, pellet (25,000 g, 10 min) resuspended ~100 μg/ml in 10 mM HEPES pH 7.3, crude peptide
[6] = pH 4.0, pellet (25,000 g, 10 min) resuspended ~100 μg/ml in 10 mM NaOAc pH 4, crude peptide

With “Ac-YVHVHVDV-NH2 [Peptide 21, Ac-YVHVHVDV-CONH2]” as the substance, how does the CD spectrum class [1, 5] read?
Its CD spectrum class is “β+”.

What about the “FTIR peak position in amide I region” value ([2]; pH 4.0 (50 mM NaOAc)) of the same substance?
The value was “−”.

What about the “FTIR peak position in amide I region” value ([2]; pH 7.3 (50 mM HEPES)) of the same substance?
Its value is 1626 cm⁻¹.

What about the “ThT, fold increase in ThT fluorescence over background” value (“ThT, fold increase” below) ([3]; pH 4.0, 50 mM NaOAc) of the same substance?
Its value is 1 fold.

And the “ThT, fold increase” value ([3]; pH 7.3, 50 mM HEPES)?
The value was 133 fold.

What about the “EM, fibrils in EM micrographs” value ([4]; pH 4.0, 50 mM NaOAc) of the same substance?
The value was “+”.

And the “EM, fibrils in EM micrographs” value ([4]; pH 7.3, 50 mM HEPES)?
Its value is “+”.

Which results are given for “Ac-YVSVHVHV-NH2 [Peptide 9, Ac-YVSVHVHV-CONH2]”?
CD spectrum class [1, 6]: −; CD spectrum class [1, 5]: β++; FTIR peak position in amide I region ([2]; pH 4.0 (50 mM NaOAc)): −; FTIR peak position in amide I region ([2]; pH 7.3 (50 mM HEPES)): 1624 cm⁻¹; ThT, fold increase in ThT fluorescence over background ([3]; pH 4.0, 50 mM NaOAc): 1 fold; ThT, fold increase in ThT fluorescence over background ([3]; pH 7.3, 50 mM HEPES): 82 fold; EM, fibrils in EM micrographs ([4]; pH 7.3, 50 mM HEPES): +

What does the source list for “Ac-YVDVHVDV-NH2 [Peptide 25, Ac-YVDVHVDV-CONH2]”?
CD spectrum class [1, 6]: β++; CD spectrum class [1, 5]: −; FTIR peak position in amide I region ([2]; pH 4.0 (50 mM NaOAc)): 1623 cm⁻¹; FTIR peak position in amide I region ([2]; pH 7.3 (50 mM HEPES)): −; ThT, fold increase in ThT fluorescence over background ([3]; pH 4.0, 50 mM NaOAc): 9 fold; ThT, fold increase in ThT fluorescence over background ([3]; pH 7.3, 50 mM HEPES): 2 fold; EM, fibrils in EM micrographs ([4]; pH 4.0, 50 mM NaOAc): +

What does the source list for “Ac-YVHVHVHV-NH2 [Peptide 8, Ac-YVHVHVHV-CONH2]”?
CD spectrum class [1, 6]: −; CD spectrum class [1, 5]: β+; FTIR peak position in amide I region ([2]; pH 4.0 (50 mM NaOAc)): −; FTIR peak position in amide I region ([2]; pH 7.3 (50 mM HEPES)): 1627 cm⁻¹; ThT, fold increase in ThT fluorescence over background ([3]; pH 4.0, 50 mM NaOAc): 1 fold; ThT, fold increase in ThT fluorescence over background ([3]; pH 7.3, 50 mM HEPES): 126 fold; EM, fibrils in EM micrographs ([4]; pH 4.0, 50 mM NaOAc): −; EM, fibrils in EM micrographs ([4]; pH 7.3, 50 mM HEPES): +

For “Ac-YVHVHVSV-NH2 [Peptide 11, Ac-YVHVHVSV-CONH2]”, which CD spectrum class [1, 6] is on record?
Its CD spectrum class is “−”.

And the CD spectrum class [1, 5]?
Its CD spectrum class is “β++”.

And the “FTIR peak position in amide I region” value ([2]; pH 4.0 (50 mM NaOAc))?
The value was “−”.

And the “FTIR peak position in amide I region” value ([2]; pH 7.3 (50 mM HEPES))?
The value was 1624 cm⁻¹.

And the “ThT, fold increase” value ([3]; pH 4.0, 50 mM NaOAc)?
Its value is 1 fold.

And the “ThT, fold increase” value ([3]; pH 7.3, 50 mM HEPES)?
Its value is 18 fold.

What about the “EM, fibrils in EM micrographs” value ([4]; pH 7.3, 50 mM HEPES) of the same substance?
The value was “+”.

Which CD spectrum class [1, 6] does the source give for “Ac-YVAVHVHV-NH2 [Peptide 27, Ac-YVAVHVHV-CONH2]” here?
Its CD spectrum class is “−”.

And the CD spectrum class [1, 5]?
The CD spectrum class was “β+”.

And the “FTIR peak position in amide I region” value ([2]; pH 4.0 (50 mM NaOAc))?
The value was “−”.

What about the “FTIR peak position in amide I region” value ([2]; pH 7.3 (50 mM HEPES)) of the same substance?
Its value is 1625 cm⁻¹.

And the “ThT, fold increase” value ([3]; pH 4.0, 50 mM NaOAc)?
Its value is 1 fold.

What about the “ThT, fold increase” value ([3]; pH 7.3, 50 mM HEPES) of the same substance?
Its value is 129 fold.

And the “EM, fibrils in EM micrographs” value ([4]; pH 7.3, 50 mM HEPES)?
The value was “+”.
